The results in this text go back to PMC7531004, “Discovery of gramicidin A analogues with altered activities by multidimensional screening of a one-bead-one-compound library” (Nature Communications, 2020).

Each structure is given as a SMILES string. Where a SMILES comes first, the peptide text is derived from it. [ ]: non-standard residue; d: D form. The star is where a group is joined. NHCH2CH2OH = OCCN*; For = O=C*

Series [1] can be described thus: H+/Na+ transport assay of bead-derived peptides (one-point).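 Further: relative to parent gramicidin A activity set to 1.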 The format is biochemical. Further details: key: relative activity; mean of two control wells = 1.00. The settings on record: bead-derived peptide solution, EYPC/EYPG LUVs. The essentials:
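H+/Na+ transport is monitored through pyranine fluorescence in freshly extruded LUVs after a 30-min room-temperature vortex with each library peptide at a single concentration. Signals are normalized to detergent (Triton X-100) and untreated controls.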

For series [2], the system named is P388 mouse leukemia cells. The settings on record: 92 h. The essentials:
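First, library peptide stocks are diluted 250-fold in RPMI1640 with 10% heat-inactivated FBS. Next, they are mixed with P388 cells to give 1 × 10^4 cells/mL and incubated 92 h at 37 °C, 5% CO2. Finally, viability (%) is scored by WST-1 absorbance at 415 nm.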

Series [3] has as its system Streptococcus pyogenes SSI-9. In words: Antibacterial activity assay of bead-derived peptides (three concentrations). The class given is cell-based. Further details: key: +++: inhibition by the 640-fold diluted peptide solution; ++: inhibition by the 160-fold diluted solution; +: inhibition by the 40-fold diluted solution; -: no inhibition. The conditions noted are these: S. pyogenes, bead-derived peptide solution, three concentrations. In short, it runs like this: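 Three stock dilutions per peptide (none, 4-fold, 16-fold in DMSO) are screened in 96-well format. The medium is blood-supplemented cation-adjusted MHB, inoculated with 2 × 10^5 CFU S. pyogenes SSI-9. Growth is read as cell precipitation at 18 h, 37 °C.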

For `CNC(=O)C[C@@H](NC(=O)[C@H](Cc1c[nH]c2ccccc12)NC(=O)[C@H](NC(=O)[C@H](Cc1c[nH]c2ccccc12)NC(=O)[C@@H](CC(C)C)NC(=O)[C@H](Cc1c[nH]c2ccccc12)NC(=O)[C@@H](CC(C)C)NC(=O)[C@@H](NC(=O)[C@@H](CC(C)C)NC(=O)[C@H](C)NC(=O)[C@@H](CC(C)C)NC(=O)[C@H](C)NC(=O)CNC(=O)[C@@H](NC=O)C(C)C)C(C)C)C(C)C)C(=O)N[C@@H](Cc1c[nH]c2ccccc12)C(=O)NCCO` [compound 2764] (For-VGA[dL]A[dL]V[dL]W[dL]W[dV]W[dD](NHMe)W-NHCH2CH2OH), the “H+/Na+ transport activity normalized against the value of 1 (1.00)” value (“H+/Na+ transport activity normalized” below) in series [1] is given as 1.12. Also, the cell viability/% in series [2] was 75.7%. In addition, in series [3], the antibacterial activity entry is “-”.
Turning to `CC(C)C[C@@H](NC(=O)[C@H](C)NC(=O)CNC(=O)[C@@H](NC=O)C(C)C)C(=O)N[C@@H](C)C(=O)N[C@@H](C(=O)N[C@H](C(=O)N[C@@H](C(=O)N[C@@H](Cc1c[nH]c2ccccc12)C(=O)N[C@@H](C(=O)N[C@@H](Cc1c[nH]c2ccccc12)C(=O)N[C@H](CC(C)C)C(=O)N[C@@H](Cc1c[nH]c2ccccc12)C(=O)N[C@@H](C(=O)N[C@@H](Cc1c[nH]c2ccccc12)C(=O)NCCO)C(C)C)C(C)C)C(C)C)C(C)C)[C@H](C)O` [compound 3364] (For-VGA[dL]A[dT]V[dV]W[dV]W[dL]W[dV]W-NHCH2CH2OH), the “H+/Na+ transport activity normalized” value in series [1] came to 1.09. Also, the cell viability/% in series [2] came to 100.0%. Besides, in series [3], the antibacterial activity result is on record as “-”.
For `CC(C)C[C@@H](NC(=O)[C@H](Cc1c[nH]c2ccccc12)NC(=O)[C@@H](CC(C)C)NC(=O)[C@@H](NC(=O)[C@H](NC(=O)[C@H](C)NC(=O)[C@H](NC(=O)[C@H](C)NC(=O)CNC(=O)[C@@H](NC=O)C(C)C)[C@H](C)O)C(C)C)C(C)C)C(=O)N[C@@H](Cc1c[nH]c2ccccc12)C(=O)N[C@H](CC(C)C)C(=O)N[C@@H](Cc1c[nH]c2ccccc12)C(=O)N[C@@H](C(=O)N[C@@H](Cc1c[nH]c2ccccc12)C(=O)NCCO)C(C)C` [compound 4236] (For-VGA[dT]A[dV]V[dL]W[dL]W[dL]W[dV]W-NHCH2CH2OH), the “H+/Na+ transport activity normalized” value in series [1] came to 1.43. The compound also yielded a cell viability/% in series [2] of 93.0%. For the same compound, the antibacterial activity result in series [3] is reported as “-”.
As for `CC(C)C[C@@H](NC(=O)[C@H](Cc1c[nH]c2ccccc12)NC(=O)[C@H](NC(=O)[C@H](Cc1c[nH]c2ccccc12)NC(=O)[C@H](NC(=O)[C@H](Cc1c[nH]c2ccccc12)NC(=O)[C@H](NC(=O)[C@@H](NC(=O)[C@H](NC(=O)[C@H](C)NC(=O)[C@H](NC(=O)[C@H](C)NC(=O)CNC(=O)[C@@H](NC=O)C(C)C)[C@H](C)O)C(C)C)C(C)C)C(C)C)C(C)C)C(C)C)C(=O)N[C@@H](Cc1c[nH]c2ccccc12)C(=O)NCCO` [compound 9354] (For-VGA[dT]A[dV]V[dV]W[dV]W[dV]W[dL]W-NHCH2CH2OH), the “H+/Na+ transport activity normalized” value in series [1] is recorded as 1.16. Moreover, the cell viability/% in series [2] is given as 100.0%. Further, the antibacterial activity result in series [3] is given as “-”.
On to `CC(C)C[C@@H](NC(=O)[C@H](Cc1c[nH]c2ccccc12)NC(=O)[C@H](NC(=O)[C@@H](NC(=O)[C@H](NC(=O)[C@H](C)NC(=O)[C@H](NC(=O)[C@H](C)NC(=O)CNC(=O)[C@@H](NC=O)C(C)C)C(C)C)C(C)C)C(C)C)C(C)C)C(=O)N[C@@H](Cc1c[nH]c2ccccc12)C(=O)N[C@H](CC(C)C)C(=O)N[C@@H](Cc1c[nH]c2ccccc12)C(=O)N[C@@H](C(=O)N[C@@H](Cc1c[nH]c2ccccc12)C(=O)NCCO)[C@H](C)O` [compound 5172] (For-VGA[dV]A[dV]V[dV]W[dL]W[dL]W[dT]W-NHCH2CH2OH), for which the “H+/Na+ transport activity normalized” value in series [1] worked out at 1.27. Besides, the cell viability/% in series [2] is on record as 100.0%. For the same compound, the antibacterial activity result in series [3] was “++”.
